Measurements: PMC5698418 (Nature Communications, 2017)

Legend:
[1] = test system: BDNF-induced nuclear Arc expression in primary cortical neurons; experiment: Chemogenomic screen: high-content image-based assay of BDNF-induced nuclear Arc expression (96-well); type: cell-based, mouse
How it was run: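 Nuclear Arc immunofluorescence is quantified automatically within an acetyl-H3K9-defined nuclear mask from ×40 images. Cultures are DIV13 mouse forebrain cortical neurons seeded at 30,000 per well and exposed to BDNF plus compound at a final 16.7 µM, with triplicate biological replicates.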

[2] = test system: Arc protein; experiment: Western blot of total Arc protein in primary cortical neurons; type: cell-based, mouse; conditions: BDNF 6 h supplemented with compound
[3] = test system: acetyl-H3K9; experiment: Acetyl-H3K9 immunofluorescence in neuronal nuclei (multiplexed in screen); type: cell-based, mouse; conditions: screen, 16.7 µM
Description: To increase the throughput of our pharmacological screening for modulators of Arc, the above mentioned assay was adapted to cultures of mouse primary cortical neurons in 96-well plates.
Screening of compounds in the chemogenomic library was carried out using DIV13 primary forebrain cortical neurons cultured on poly-L-lysine/laminin-coated 96-well plates (Ibidi USA, Madison, WI). Cells were seeded at a density of 30,000 cells per well and treated with the compound library and BDNF according to the experimental design presented in Fig. 3a. After experimental treatment, cells were processed for Arc and acetyl-H3K9 immunocytochemistry according to the protocol described above. Both antigens (Arc and acetyl-H3K9) were imaged using an IN Cell Analyzer 6000 imaging system and a ×40 objective. […] High-throughput quantification of nuclear Arc immunofluorescence signal was performed in a similar fashion than the low-throughput procedure described above but with the exception that acetyl-H3K9 was used as a nuclear mask to guide the automated quantification of nuclear Arc immunofluorescence signal.

[4] = test system: Arc puncta in dendrites of primary cortical neurons; experiment: Arc puncta along Map2-labeled dendrites (immunocytochemistry); type: cell-based, mouse; conditions: 16.7 µM with BDNF, vs untreated and BDNF alone; for BDNF: BDNF alone vs untreated
From the text: Chemical structure of each compound is presented on top. b Graphs show mean (n = 5) Arc/β-actin ratio (±SEM) for cells treated as in a. […] Tukey’s HSD post hoc test, *p < 0.05; **p < 0.01, ***p < 0.005; ****p < 0.0001. […] Representative captures of DIV14 mouse primary cortical neurons from each experimental condition co-immunostained for Arc (red fluorophore) and Map2 (green fluorophore). White arrowheads show examples of discrete Arc puncta. […] Tukey’s HSD post hoc test, *p < 0.05; ***p < 0.005; ****p < 0.0001
Indirect immunofluorescence detection of antigens was carried out using cortical neurons cultured on poly-L-lysine/laminin-coated coverslips in 24-well plates at a density of 0.1 × 10^7 per well. After experimental treatment, cells were washed twice with PBS and fixed for 30 min at room temperature with 4% paraformaldehyde in PBS. After fixation, cells were washed twice with PBS, permeabilized with PBST (PBS + 0.25% Triton X-100) for 20 min, blocked in blocking solution (PBS + 5% normal goat serum) for another 30 min, and finally incubated overnight at 4 °C with the first primary antibody in blocking solution. The next day, coverslips were extensively washed with PBS and incubated for 2 h at room temperature in the appropriate fluorophore-conjugated secondary antibody solution (Alexa 488- or Alexa 594-conjugated secondary antibody (Molecular Probes, Invitrogen) in blocking solution). After washing with PBS, the coverslips were incubated again overnight in primary antibody solution for the second antigen, and the procedure for conjugation of the fluorophore-conjugated secondary antibody was repeated as above. Finally, cell nuclei were counterstained with 4′,6-diamidino-2-phenylindole (DAPI), and coverslips were mounted on glass slides with ProLong Antifade reagent (Invitrogen).
(§1) Quantification of surface GluA1 puncta was performed according to the following strategy. First, overlapping digital images of GluA1 and Map2 immunostainings were collected using a Zeiss AxioObserver Z1 inverted microscope and ×63 oil immersion objective. Second, thresholding and segmentation based on the Map2 images was used to remove GluA1 signals outside of dendritic processes. Importantly, the same background/foreground cutoff threshold was used for images of all experimental conditions. Third, the length of dendrites for each image set was measured and recorded. Finally, distinct GluA1 foreground objects along dendrites >5 pixels were counted using the particle analysis tool in ImageJ and presented as the average number of GluA1 puncta per µm of dendrite length for each experimental condition.

[5] = test system: Arc protein; experiment: Arc protein half-life after cycloheximide block in primary cortical neurons; type: cell-based, mouse; conditions: BDNF 4 h, then CHX plus oxamflatin; vehicle baseline ~47 min
Description: Each compound was tested at a concentration of 16.7 µM and in combination with BDNF or alone. Arc mRNA level induced by just BDNF was included in each experiment as a reference. Bars represent mean fold-change (f.c.) normalized to Arc expression measured in untreated cultures and each red point represents fold-change for an individual biological replicate (n = 4). d Primary cortical neurons were treated with BDNF for 4 h to induce Arc expression at which point protein synthesis was blocked by direct addition to culture media of cycloheximide (CHX, 50 µg ml^−1) in presence of vehicle or oxamflatin (16.7 µM). […] It is left out because the vehicle is a control and not a substance.
Specifically, we stimulated the cells with BDNF for 4 h to promote accumulation of Arc protein and then added CHX to block all de novo protein translation. Importantly, cultures treated this way were divided in two groups—one to which oxamflatin was added at the same time as CHX and another that was treated with the vehicle only (baseline measure). […] This experiment provided clear evidence that the impact of oxamflatin on Arc protein abundance is, at least in part, the result of a decrease in the rate of Arc protein degradation; however, a mechanistic explanation of how this KDAC inhibitor is modulating the turnover of Arc protein remained elusive at this point.

[6] = test system: surface GluA1; experiment: Surface AMPAR (GluA1) imaging along dendrites; type: cell-based, mouse; conditions: 16.7 µM, 6 h with BDNF, vs untreated and BDNF alone; for BDNF: BDNF alone vs baseline
Description: Our procedure to label surface AMPARs containing the GluA1 subunit was adapted from two reports[14],[61]. Precisely, DIV14 primary cortical neurons cultured on coverslips were rinsed once with room temperature PBS^MC (PBS containing 0.5 mM CaCl2, 1 mM MgCl2, and 4% sucrose). Live cells were then incubated for 30 min at room temperature with GluA1 primary antibody solution (PBS^MC with antibody against the extracellular N-terminus of GluA1 (EMD Millipore Corp, clone RH95, 5.0 µg ml^−1)). Next, cells were rinsed twice with ice-cold PBS^MC followed by fixation with 4% paraformaldehyde + 4% sucrose solution for 15 min at room temperature. After fixation, neurons were washed with regular PBS and then incubated overnight with Map2 primary antibody solution (PBS with 0.125% Triton X-100, 5% normal goat serum, and anti-Map2 antibody) to label dendrites. Next day, coverslips were washed with PBS, incubated with appropriate secondary antibodies for 1 h at room temperature, and finally mounted on glass slides with ProLong Antifade reagent (Invitrogen).
as §1

[7] = test system: Neuro2a cells; experiment: Polyubiquitination of WT and mutant Arc-Myc-FLAG (IP/western) in Neuro2a cells; type: cell-based, mouse; conditions: MG132 10 µM for 20 min
From the text: To assess polyubiquitination of Arc in DIV13 primary cortical neurons, Arc was immunopurified from total lysates using an agarose-conjugated anti-Arc monoclonal antibody (Santa Cruz Biotechnology, clone C-7). Overexpressed WT and mutant Arc-Myc-FLAG in Neuro2a cells were immunopurified from total lysates with anti-FLAG M2 antibody conjugated to magnetic beads (Sigma-Aldrich, M8823). Immunopurified materials were separated using SDS–PAGE and electrophoretically transferred to a nitrocellulose membrane. To enhance the immunodetection of ubiquitin conjugated to Arc, the nitrocellulose membrane was placed between two layers of Whatman filter paper, submerged in distilled water, and autoclaved for 30 min. After autoclaving, the membrane was blocked in blocking solution (TBST supplemented with 5% milk) for 30 min and incubated overnight with an antibody recognizing ubiquitin (Santa Cruz Biotechnology, clone P4D1, 1:200) in blocking solution. Subsequent steps were carried out according to the western blot procedure described above.

[8] = test system: Neuro2a cells; conditions: for Fold-change to WT: protein half-life in Neuro2a
From the text: Next, we aimed to determine whether the K24, K33, K55, and K70 residues participate in Arc protein turnover. […] We also included K70 in this experiment because of its position in the coiled-coil and nuclear retention domains of Arc (Fig. 5e) as well as its relative proximity to K55. For this test, we used site-directed mutagenesis to generate plasmids that would allow overexpression of an acetyl-mimic/unmodifiable mutant Arc-Myc-FLAG protein (lysine (K) to glutamine (Q) mutant) for each of these four sites. After transfecting sets of Neuro2a cells with these different constructs, we inhibited translation with CHX and monitored overexpressed protein levels for up to 6 h after.
Lysates were collected at the indicated time points and Arc-Myc-FLAG protein level analyzed in every sample by western blotting with an anti-FLAG antibody. Representative western blots are presented on top and quantification of data normalized to corresponding β-actin and presented as percentage of Arc-Myc-FLAG level (±SEM) at the initial time point after CHX application (t = 0). Curve represents exponential decay fit. b Estimate of protein half-life Arc for WT Arc-Myc-FLAG and each acetyl-mimic mutant is presented in table. c WT and acetyl-mutant Arc-Myc-FLAG polyubiquitination was determined in lysates from overexpressing Neuro2a cells. Lysates were immunoprecipitated with anti-FLAG and western blotted with anti-Ub or anti-Arc as indicated.
Neuro2A cells were cultured in DMEM (supplemented with 10% fetal bovine serum (Gemini-Bio-Products, West Sacramento, CA), penicillin (50 units ml^−1), and streptomycin (50 µg ml^−1)) and transfected overnight using Lipofectamine 2000 (Invitrogen) according to the manufacturer’s protocol. The Neuro2A cell line was generously shared by Dr. Grace Gill.
The pCMV6-Arc-Myc-DDK (FLAG) plasmid (MR206218) was purchased from OriGene Biotechnologies (Rockville, MD). The Arc-Myc-FLAG K24Q, K24R, K33Q, K55Q, K70Q, and K70R plasmids were generated with the help of the Q5 Site-Directed Mutagenesis Kit from New England BioLabs (Ipswich, MA) using WT pCMV6-Arc-Myc-FLAG as template. All constructs were verified by DNA sequencing.

Molecule: oxamflatin
- Percentage of cell with nuclear Arc immunostaining above 2σ threshold [1]: 50.0%
- rank among potentiators of BDNF-induced nuclear Arc expression in screen ([1]; 16.7 µM, three biological replicates): second
- Fold-change — Normalized to DMSO control (BDNF) ([1]; nuclear Arc-positive cells relative to DMSO + BDNF control, negative values = decrease): 2.6 fold
- total Arc protein vs BDNF plus vehicle control (western blot, Arc/β-actin) [2]: significantly more Arc protein
- impact on acetyl-H3K9 immunofluorescence (Z-score) [3]: strong impact
- number of Arc puncta in dendritic projections [4]: significantly greater number of Arc puncta
- Arc protein half-life (regression analysis) [5]: ~ 112 min
- surface GluA1 puncta per dendrite µm [6]: significant decrease in surface GluA1 levels

B1: K24Q: acetyl-mimic/unmodifiable mutant Arc-Myc-FLAG, lysine 24 to glutamine (protein, UniProt Q9WV31 1-396, looked up, variant K24Q)
Activity-regulated …: MELDHMTTGGLHAYPAPRGGPAAQPNVILQIGKCRAEMLEHVRRTHRHLLTEVSKQVERELKGLHRSVGKLENNLDGYVPTGDSQRWKKSIKACLCRCQETIANLERWVKREMHVWREVFYRLERWADRLESMGGKYPVGSEPARHTVSVGVGGPEPYCQEADGYDYTVSPYAITPPPAAGELPEQESVEAQQYQSWGPGEDGQPSPGVDTQIFEDPREFLSHLEEYLRQVGGSEEYWLSQIQNHMNGPAKKWWEFKQGSVKNWVEFKKEFLQYSEGTLSREAIQRELELPQKQGEPLDQFLWRKRDLYQTLYVDAEEEEIIQYVVGTLQPKLKRFLRHPLPKTLEQLIQRGMEVQDGLEQAAEPSGTPLPTEDETEALTPALTSESVASDRTQPE
modifications: Myc-FLAG tag
notes: acetyl-mimic/unmodifiable mutant Arc-Myc-FLAG, lysine 24 to glutamine
- polyubiquitination of Arc-Myc-FLAG mutant [7]: noticeable decrease in polyubiquitination
- Estimated t½ [8]: 6.66 h
- Fold-change to WT [8]: 2.40

B2: K70Q: acetyl-mimic/unmodifiable mutant Arc-Myc-FLAG, lysine 70 to glutamine (protein, UniProt Q9WV31 1-396, looked up, variant K70Q)
Activity-regulated …: MELDHMTTGGLHAYPAPRGGPAAKPNVILQIGKCRAEMLEHVRRTHRHLLTEVSKQVERELKGLHRSVGQLENNLDGYVPTGDSQRWKKSIKACLCRCQETIANLERWVKREMHVWREVFYRLERWADRLESMGGKYPVGSEPARHTVSVGVGGPEPYCQEADGYDYTVSPYAITPPPAAGELPEQESVEAQQYQSWGPGEDGQPSPGVDTQIFEDPREFLSHLEEYLRQVGGSEEYWLSQIQNHMNGPAKKWWEFKQGSVKNWVEFKKEFLQYSEGTLSREAIQRELELPQKQGEPLDQFLWRKRDLYQTLYVDAEEEEIIQYVVGTLQPKLKRFLRHPLPKTLEQLIQRGMEVQDGLEQAAEPSGTPLPTEDETEALTPALTSESVASDRTQPE
modifications: Myc-FLAG tag
notes: acetyl-mimic/unmodifiable mutant Arc-Myc-FLAG, lysine 70 to glutamine
- polyubiquitination of Arc-Myc-FLAG mutant [7]: noticeable decrease in polyubiquitination
- Estimated t½ [8]: 6.15 h
- Fold-change to WT [8]: 2.22
